Test results as given in patent publication US20130065897A1, “COMPOUNDS, PREPARATION AND USES THEREOF” (PETER MACCALLUM CANCER INSTITUTE, priority 2009, published 2013).

Tests used:
[1] = tested on: KHYG-1 NK cell-mediated lysis of K562 cells; experiment: Inhibition of KHYG-1 NK cell-mediated lysis of K562 cells (51Cr release); assay type: cell-based; conditions: K562 target cells, Effector:Target 2:1, 4 hours 37° C.
Experimental: Inhibition of KHYG-1 NK Cell-Mediated lysis of K562 Cells
KHYG-1 cells were washed and resuspended in RPMI+0.1% BSA at 4×10^5 cells/ml and 50 μl of KHYG-1 cells were dispensed to each well of a 96-well V-bottom, plate. Test compounds were added to KHYG-1 cells at various concentrations up to 20 μM and incubated at RT for 20 minutes. 1×10^6 K562 target cells were labelled with 75 μCi ^51Cr in 200 μl RPMI for 90 mins at 37° C., cells were washed as described above and resuspended in 5 ml RPMI+0.1% BSA. 50 μl of ^51Cr labelled K562 leukemia target cells were added to each well of the KHYG-1 plate (Effector:Target 2:1) and incubated at 37° C. for 4 hours. ^51Cr release was assayed using a Skatron Harvesting Press and radioactivity estimated on a Wallac Wizard 1470 Automatic Gamma counter (Turku, Finland). The percentage of specific cytotoxicity was calculated by the formula: […]
and expressed as the mean of triplicate assays +/−standard error of the mean.

KHYG-1 NK cells = experiment: Toxicity to KHYG-1 NK cells (trypan blue viability); assay type: cell-based; conditions: viable cells as percentage of total (% viability), 18 to 24 hours
Experimental: Toxicity to KHYG-1 NK Cells
KHYG-1 cells were washed and resuspended in RPMI+0.1% BSA at 4×10^5 cells/ml and 50 μl of KHYG-1 cells were dispensed to each well of a 96-well V-bottom plate. Test compounds were added to KHYG-1 cells at a concentration of 20 μM and incubated at RT for 20 minutes. 100 μL of RPMI 0.1% BSA was added and the cells were incubated for 4 hours at 37° C. then washed ×3 in RPMI+0.1% BSA. Cells were then resuspended in 200 μl of complete medium and incubated for 18 to 24 hours at 37° C. Trypan blue was added to each well and viable (clear) cells counted as a percentage of total (clear+blue) cell number (% viability).

recombinant perforin = recombinant perforin (UniProt P10820); assay type: cell-based; conditions: read-out: Jurkat IC50; recombinant perforin pre-incubated 30 min with compound; 51Cr-labelled Jurkat cells, 0.1% BSA, 37° C. 4 hours
Experimental: Inhibition of Perforin-Mediated Lysis of Jurkat Cells
The ability of the compounds to inhibit the lysis of nucleated (Jurkat T lymphoma) cells in the presence of 0.1% BSA, as measured by release of ^51Cr was measured. Jurkat target cells were labelled by incubation in medium with 100 μCi ^51Cr for one hour. The cells were then washed three times to remove unincorporated isotope and re-suspended at 1×10^5 cells per mL in RPMI buffer supplemented with 0.1% BSA. […] The supernatant was collected and assessed for its radioactive content on a gamma counter (Wallac Wizard 1470 automatic gamma counter). Each data point was performed in triplicate and an IC50 was calculated from the range of concentrations described to above.

Chain of recombinant perforin (P10820 whole entry): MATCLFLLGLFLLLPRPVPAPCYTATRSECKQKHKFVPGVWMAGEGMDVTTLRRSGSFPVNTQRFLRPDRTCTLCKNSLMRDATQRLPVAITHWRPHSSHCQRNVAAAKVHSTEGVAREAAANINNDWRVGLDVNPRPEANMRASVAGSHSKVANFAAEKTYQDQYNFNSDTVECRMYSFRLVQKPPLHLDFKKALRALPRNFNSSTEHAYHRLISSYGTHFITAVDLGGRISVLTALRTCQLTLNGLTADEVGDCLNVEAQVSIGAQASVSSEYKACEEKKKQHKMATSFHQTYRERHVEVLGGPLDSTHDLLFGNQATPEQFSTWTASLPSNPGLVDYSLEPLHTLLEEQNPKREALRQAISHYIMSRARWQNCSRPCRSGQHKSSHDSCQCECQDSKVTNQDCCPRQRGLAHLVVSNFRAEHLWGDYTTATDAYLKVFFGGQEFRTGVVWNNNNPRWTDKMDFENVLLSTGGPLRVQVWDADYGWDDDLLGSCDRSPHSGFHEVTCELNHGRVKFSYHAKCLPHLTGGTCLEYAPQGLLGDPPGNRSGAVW

Compound	inhibition at 20 µM [1]	melting point	percent viable KHYG-1 cells (trypan blue) at 20 μM (KHYG-1 NK cells)	IC50 (recombinant perforin)
O=C1NC(=S)N/C1=C/c1ccc(-c2ccc3c(c2)COC3=O)o1 [Cmpd 1, (E,Z)-5-((5-(1-Oxo-1,3-dihydroisobenzofuran-5-yl)furan-2-yl)methylene)-2-thioxoimidazolidin-4-one]	95%	> 300 °C	66%	
O=C1NC(=O)/C(=C\c2ccc(-c3ccc4c(c3)COC4=O)s2)N1 [Cmpd 3, (E,Z)-5-((5-(1-Oxo-1,3-dihydroisobenzofuran-5-yl)thiophen-2-yl)methylene)imidazolidine-2,4-dione]	70%	> 300 °C	82%	
[H]/N=C1/NC(=O)/C(=C\c2ccc(-c3ccc4c(c3)COC4=O)s2)N1C [Cmpd 4, (E,Z)-2-Imino-1-methyl-5-((5-(1-oxo-1,3-dihydroisobenzofuran-5-yl)thiophen-2-yl)methylene)imidazolidin-4-one]	50%	> 300 °C	100%	
O=C1NC(=S)N/C1=C\c1cccc(-c2ccc3c(c2)COC3=O)c1 [Cmpd 5, (E,Z)-5-(3-(1-Oxo-1,3-dihydroisobenzofuran-5-yl)benzylidene)-2-thioxoimidazolidin-4-one]	64%	285 to 288 °C	97%	
O=C1NC(=S)N/C1=C\c1ccc(-c2ccc3c(c2)COC3=O)cc1 [Cmpd 6, (E,Z)-5-(4-(1-Oxo-1,3-dihydroisobenzofuran-5-yl)benzylidene)-2-thioxoimidazolidin-4-one]	50%	> 300 °C	95%	
O=C1NC(=S)N/C1=C\c1ccc(-c2ccc3c(c2)COC3=O)cn1 [Cmpd 8, (E,Z)-5-((5-(1-oxo-1,3-dihydroisobenzofuran-5-yl)pyridin-2-yl)methylene)-2-thioxoimidazolidin-4-one]	57%	> 300 °C	96%	
O=C1NC(=S)N/C1=C\c1csc2ccc(-c3ccc4c(c3)COC4=O)cc12 [Cmpd 9]	80%	> 300 °C	0%	
O=C1NC(=S)N/C1=C/c1cc2cc(-c3ccc4c(c3)COC4=O)ccc2o1 [Cmpd 10, (2)-5-((5-(1-Oxo-1,3-dihydroisobenzofuran-5-yl)benzofuran-2-yl)methylene)-2-thioxoimidazolidin-4-one]	51%	> 300 °C	88%	0.62 µM
O=C1NC(=S)N/C1=C/c1cc2ccc(-c3ccc4c(c3)COC4=O)cc2[nH]1 [Cmpd 11, (E,Z)-5-((6-(1-Oxo-1,3-dihydroisobenzofuran-5-yl)-1H-indol-2-yl)methylene)-2-thioxoimidazolidin-4-one]	100%	> 300 °C	86%	2.34 µM
O=C1NC(=S)N/C1=C/c1cc(-c2ccc3c(c2)COC3=O)cs1 [Cmpd 15, (E,Z)-5-((4-(1-Oxo-1,3-dihydroisobenzofuran-5-yl)thiophen-2-yl)methylene)-2-thioxoimidazolidin-4-one]	67%	> 300 °C	96%	
O=C1C/C(=C/c2ccc(-c3ccc4c(c3)COC4=O)s2)C(=O)N1 [Cmpd 36, (E,Z)-3-((5-(1-Oxo-1,3-dihydroisobenzofuran-5-yl)thiophen-2-yl)methylene)pyrrolidine-2,5-dione]	51%	> 295 °C	65%	
O=C1NCC/C1=C\c1ccc(-c2ccc3c(c2)COC3=O)s1 [Cmpd 37, (E,Z)-3-((5-(1-Oxo-1,3-dihydroisobenzofuran-5-yl)thiophen-2-yl)methylene)pyrrolidin-2-one]	20%	224 to 227 °C	97%	
O=C1NC(=S)N/C1=C\c1cccc(-c2ccc3c(c2)CNC3=O)c1 [Cmpd 49, (E,Z)-5-(3-((5-Oxo-2-thioxoimidazolidin-4-ylidene)methyl)phenyl)isoindolin-1-one]	8%	> 300 °C		3.44 µM
O=C1NC(=S)N/C1=C/c1cc(-c2ccc3c(c2)CNC3=O)cs1 [Cmpd 50, (E,Z)-5-(5-((5-Oxo-2-thioxoimidazolidin-4-ylidene)methyl)thiophen-3-yl)isoindolin-1-one]	42%	> 300 °C		3 µM
O=C1NC(=S)N/C1=C/c1ccc(-c2ccc3c(c2)COC3=O)[nH]1 [Cmpd 53, (E,Z)-5-((5-(1-Oxo-1,3-dihydroisobenzofuran-5-yl)-1H-pyrrol-2-yl)methylene)-2-thioxoimidazolidin-4-one]	30%	> 300 °C		2.45 µM
O=C1NC(=S)N/C1=C/c1cnc(-c2ccc3c(c2)COC3=O)o1 [Cmpd 54, (E,Z)-5-((2-(1-Oxo-1,3-dihydroisobenzofuran-5-yl)oxazol-5-yl)methylene)-2-thioxoimidazolidin-4-one]	55%	> 295 °C	100%	
O=C1NC(=S)N/C1=C\c1nc(-c2ccc3c(c2)COC3=O)cs1 [Cmpd 56, (E,Z)-5-((4-(1-Oxo-1,3-dihydroisobenzofuran-5-yl)thiazol-2-yl)methylene)-2-thioxoimidazolidin-4-one]		> 295 °C		1.41 µM
O=C1NC(=S)N/C1=C\c1csc(-c2ccc3c(c2)COC3=O)n1 [Cmpd 57, (E,Z)-5-((2-(1-Oxo-1,3-dihydroisobenzofuran-5-yl)thiazol-4-yl)methylene)-2-thioxoimidazolidin-4-one]		> 295 °C		0.34 µM
O=C1NC(=S)N/C1=C\c1cc(-c2ccc3c(c2)COC3=O)no1 [Cmpd 58, (E,Z)-5-((3-(1-Oxo-1,3-dihydroisobenzofuran-5-yl)isoxazol-5-yl)methylene)-2-thioxoimidazolidin-4-one]	39%	> 300 °C	82%	
O=C1NC(=S)N/C1=C\c1csnc1-c1ccc2c(c1)COC2=O [Cmpd 59, (E,Z)-5-((3-(1-Oxo-1,3-dihydroisobenzofuran-5-yl)isothiazol-4-yl)methylene)-2-thioxoimidazolidin-4-one]	24%	> 300 °C	93%	
O=C1NC(=S)N/C1=C\c1cc(-c2ccc3c(c2)COC3=O)ns1 [Cmpd 60, (E,Z)-5-((3-(1-Oxo-1,3-dihydroisobenzofuran-5-yl)isothiazol-5-yl)methylene)-2-thioxoimidazolidin-4-one]	45%	> 300 °C		1.44 µM
O=C1NC(=S)N/C1=C/c1ccc(-c2ccc3c(c2)CN(CCN2CCOCC2)C3=O)s1 [Cmpd 67, (E,Z)-2-(2-Morpholinoethyl)-5-(5-((5-oxo-2-thioxoimidazolidin-4-ylidene)methyl)thiophen-2-yl)isoindolin-1-one]	78%	261 to 264 °C	73%	
CN1CCN(CCCN2Cc3cc(-c4ccc(/C=C5/NC(=S)NC5=O)s4)ccc3C2=O)CC1 [Cmpd 76, (E,Z)-2-(3-(4-Methylpiperazin-1-yl)propyl)-5-(5-((5-oxo-2-thioxoimidazolidin-4-ylidene)methyl)thiophen-2-yl)isoindolin-1-one]	58%	197 to 201 °C		> 20 µM
O=C1NC(=S)N/C1=C/c1cc2cc(-c3ccc4c(c3)COC4=O)ccc2s1 [Cmpd 79, (E,Z)-5-((5-(1-Oxo-1,3-dihydroisobenzofuran-5-yl)benzo[b]thiophen-2-yl)methylene)-2-thioxoimidazolidin-4-one]	59%	> 305 °C	72%	
